The values that follow come from patent US4775524A, “Method of treating hyperproliferative skin disease with substituted heterospiro pyridine derivatives” (Schering Corporation, priority 1986, dated 1988).

By % Inhibition is commonly meant the change of the read-out against control, counted positive when it falls. A higher % Inhibition goes with strong suppression.

This assay concerns arachidonic acid-induced inflammatory reaction, mouse ear. Briefly: Arachidonic Acid Mouse Ear Test. In kind it is in vivo, Charles River, female, CD, (SD) BR mice. To be noted: topical, 30 minutes prior to AA challenge; for Tissue Wt.: 6 mm punch biopsy 1 hour after AA, mean ± standard error; for % Inhibition: biopsy 1 hour after AA. The text has this:
A compound of formula I may be utilized to treat hyperoroliferative skin disease in a mammal. As used herein, "hyperproliferative skin disease" means any condition a symptom of which is accelerated skin cell production, flaking, scales or papular lesions. Representative examples of hyperproliferative skin diseases include osoriasis, eczema, dandruff and the like. […] The Arachidonic Acid Mouse Ear Test is a recognized model for assessing the effectiveness of compounds for the treatment of hyperproliferative skin disease.
Charles River, female, CD, (SD) BR mice, 6 weeks old, are caged 8/group and allowed to acclimate 1-3 weeks prior to use.
Arachidonic acid (AA) is dissolved in reagent grade acetone (2 mg/0.01 ml) and stored at -20° C. for a maximum of 1 week prior to use. Inflammatory reactions are induced by applying 10 μl of AA to both surfaces of one ear (4 mg total).
Test drugs are dissolved in either reagent grade acetone or acueous ethanol (only if insoluble in acetone) at the same doses selected by Opas et al., Fed. Proc. 43, Abstract 2983, P. 1927 (1984) and Young et al., J. Invest. Dermatol. 82, pp. 367-371 (1984). These doses are employed to ensure maximum responses and to overcome any difference in topical absorption which could occur with any drug applied in an aqueous ethanol vehicle. The test drug is applied 30 minutes prior to challenge with AA.
The severity of the skin reaction is measured as a function of increased ear weight. A 6 mm punch biopsy is removed 1 hour after AA challenge and weighed to the nearest 0.1 mg. Mean ± standard error and all possible comparisons are made via Duncan's Multiple Range Statistic.

Turning to `O=C1c2cccnc2N(c2ccccc2)C(=O)C12CCCCO2` (centres unmarked) [1-Phenyl-3',4',5',6'-tetrahydro-spiro-[1,8-naphthyridine-3,2'-(2H)pyran]-2,4-dione], the Tissue Wt. runs as follows: (dose 0.125 mg/ear) 4.86 ± 0.39 mg; (dose 0.25 mg/ear) 4.97 ± 0.7 mg; (dose 0.5 mg/ear) 4.39 ± 0.62 mg; (dose 1.0 mg/ear) 2.27 ± 0.29 mg. Besides, the “% Inhibition” value (dose 0.125 mg/ear) was found to be 30%, the “% Inhibition” value (dose 0.25 mg/ear) amounted to 28%, the “% Inhibition” value (dose 0.5 mg/ear) came to 37% and the “% Inhibition” value (dose 1.0 mg/ear) came to 67%.
